Laboratory results published in patent publication US20220264878A1, “HERBICIDAL COMPOSITION CONTAINING R-TYPE PYRIDYLOXY CARBOXYLIC ACID DERIVATIVE AND USE THEREOF” (Qingdao Kingagroot Chemical Compound Co., Ltd., priority 2019, published 2022).

How the values were obtained:
Type in all cases: in vivo
Alopecurus japonicus = assay: Post-emergence foliage spray, pot culture, fresh weight inhibition (Tables 151-206; 20 days)
Method: (§1) Table 151-206: Digitaria sanguinalis, Amaranthus retroflexus, Conyza Canadensis, Capsella bursa-pastoris, Eleusine indica were collected in Huangdao of Shandong Province, Sinapis arvensis were collected in Sixian of Anhui Province, Alopecurus japonicus were collected in Tianchang of Anhui Province, Veronica didyma were collected in Siyang of Jiangsu Province.
(§2) The above weeds were cultivated by a pot culture method. […] Full and uniform weed seeds were selected, soaked in warm water at 25° C. for 6 hours, and germinated in a 28° C. biochemical incubator (darkness). The weed seeds that had just germinatedwere evenly placed on the surface of the soil and then covered with 0.5-1 cm soil according to the sizes of seeds.
(§3) The culture was carried out in a controllable sunlight greenhouse at 20 to 30° C., in natural light, and relative humidity of 57% to 72%.
(§4) The technical materials were all dissolved in acetone, and diluted with an aqueous solution containing 0.1% emulsifier Tween-80. The dilution is performed as required.
(§5) A ratio of the active ingredient A to the active ingredient B and amounts thereof in each group depends on the characteristics and toxicity of the two agents, as well as the main application purpose of a corresponding formulation. Based on the pre-tests in this study, the dosage of the active ingredient A and B applied alone and in combination were shown in the tables. Water containing the solvent and emulsifier same with the above groups but free of the agents was used as a blank control.
(§6) Table 1-48, 51-98, 101-148, 151-206: […] per treatment, that is, a total of 60 weeds were treated in one treatment.
(§7) Table 151-206: The agents were used for only once in the experiment. In the stage of weeds with 3˜4 leaves, the weeds were thinned out to maintain 15 weeds per pot and 45 weeds for each treatment, then continued to be cultured to 4˜5 leaves stage of grassy weeds, 5˜6 leaves stage of broadleaf weeds, and treated.
(§8) The well-cultured weeds were evenly placed on a platform with an area of 0.5 m^2, and a solution of agents was sprayed on the stems and leaves thereof by the 3WP-2000-type walking spray tower at a dosage of 450 kg/ha and at a spray pressure of 0.3 MPa. After all the solution was sprayed, the valve was closed. After 30 seconds, the door of the spray tower was opened, and the nutritional bowl was taken out. Then the valve was opened, and the spray tube was cleaned by spraying 50 ml of water.
(§9) A pot-culture method was employed. For the cultivation of weeds, please refer to the Section 1.1), and “Pesticide guidelines for laboratory bioactivity tests—herbicides”. As to a method for applying agents, please refer to the section 2.3.2), that is, a foliage treatment was employed. After the treatment, the weeds were routinely cultured in a greenhouse.
(§10) A method for investigating absolute number was employed, wherein whole seedlings of survival weeds were cut off with a blade along the soil surface, and the fresh weight of the weeds was weighed with an analytical balance. For dead weeds, the fresh weight thereof was zero.
(§11) Table 151-206: The investigation was performed after 20 days of the treatment for only once.
(§12) Theoretical fresh weight inhibition rate of a combination of two active ingredients in each group was calculated by the Gowing method (E0=X+Y−X*Y/100), and then compared with an actually measured inhibition rate (E), thereby effect of the combination (hereafter referred to as combined effect) on weeds was evaluated: the value of E-E0, which was greater than 10%, corresponded to a synergistic effect, the value of E-E0, which was less than −10%, corresponded to an antagonistic effect, and the value of E-E0, which was from −10% to 10%, corresponded to an additional effect.

Sinapis arvensis = assay: as above
Method: as §1, §2, §3, §4, §5, §6, §7, §8, §9, §10, §11, §12

Digitaria sanguinalis = assay: as above
Method: as §1, §2, §3, §4, §5, §6, §7, §8, §9, §10, §11, §12

Eleusine indica = assay: as above
Method: as §1, §2, §3, §4, §5, §6, §7, §8, §9, §10, §11, §12

Solanum nigrum = assay: Post-emergence foliage spray, pot culture, fresh weight inhibition (Tables 1-48, 51-98, 101-148; 24 days)
Source text: (§13) Table 1-48, 51-98, 101-148: Echinochloa crusgalli var. zelayensis, Eclipta prostrate, Galium aparine L., Alopecurus aequalis, Alopecurus japonicus, Lindernia procumbens, Veronica persica^1, Malachium aquaticum, Beckmannia syzigachne, Stellaria media were collected in Huai'an of Jiangsu Province; Commelina communis, Sonchus arvensis, Setaria glauca, Chloris virgata, Setaria faberi, Sonchus oleraceus L., Echinochloa oryzoides, Cirsium setosum, Xanthium strumarium were collected in Qiqiha'er of Heilongjiang Province; Sinapis arvensis, Veronica persica^2 were collected in Zhumadian of Henan Province; Ludwigia prostrate, Ammannia arenaria were collected in Zhuji of Zhejiang Province; Amaranthus retrojlexus, Descurainia sophia, Digitaria sanguinalis, Setaria viridis, Conyza Canadensis, Capsella bursa-pastoris, Eleusine indica, Ipomoea purpurea, Abutilon theophrasti, Chenopodium album, Acalypha australis, Solanum nigrum were collected in Qingdao of Shandong Province; Echinochloa caudate were collected in Pingluo of Ningxia Province.
as §2, §3, §4, §5, §6
as §7, with “1-48, 51-98, 101-148:” for “151-206:”, “5˜6” for “4˜5”, “6˜7” for “5˜6”
as §8, §9, §10
(§14) Table 1-48, 51-98, 101-148, 207-216: The investigation was performed after 24 days of the treatment for only once.

[1] = test system: Veronica persica^2 (collected in Zhumadian of Henan Province); assay: as above
Source text: as §13, §2, §3, §4, §5, §6
as §7, with “1-48, 51-98, 101-148:” for “151-206:”, “5˜6” for “4˜5”, “6˜7” for “5˜6”
as §8, §9, §10, §14

[2] = B alone 75 g a.i./ha, 20 days after treatment
[3] = B alone 150 g a.i./ha, 20 days after treatment
[4] = B alone 300 g a.i./ha, 20 days after treatment
[5] = B alone 600 g a.i./ha, 20 days after treatment

O=C(O)CNCP(=O)(O)O [glyphosate]
Control effect (%) of B applied alone in corresponding dose (Alopecurus japonicus; B 75 g a.i./ha, 20 days): 7.6%
Control effect (%) of B applied alone in corresponding dose (Alopecurus japonicus; B 150 g a.i./ha, 20 days): 19.5%
Control effect (%) of B applied alone in corresponding dose (Alopecurus japonicus; B 300 g a.i./ha, 20 days): 30.8%
Control effect (%) of B applied alone in corresponding dose (Alopecurus japonicus; B 600 g a.i./ha, 20 days): 66.9%
Control effect (%) of B applied alone in corresponding dose (Alopecurus japonicus; [2]): 7.6%
Control effect (%) of B applied alone in corresponding dose (Alopecurus japonicus; [3]): 19.5%
Control effect (%) of B applied alone in corresponding dose (Alopecurus japonicus; [4]): 30.8%
Control effect (%) of B applied alone in corresponding dose (Alopecurus japonicus; [5]): 66.9%
Control effect (%) of B applied alone in corresponding dose (Sinapis arvensis; B 75 g a.i./ha, 20 days): 2.5%
Control effect (%) of B applied alone in corresponding dose (Sinapis arvensis; B 150 g a.i./ha, 20 days): 9.4%
Control effect (%) of B applied alone in corresponding dose (Sinapis arvensis; B 300 g a.i./ha, 20 days): 19.8%
Control effect (%) of B applied alone in corresponding dose (Sinapis arvensis; B 600 g a.i./ha, 20 days): 37.2%
Control effect (%) of B applied alone in corresponding dose (Sinapis arvensis; [2]): 2.5%
Control effect (%) of B applied alone in corresponding dose (Sinapis arvensis; [3]): 9.4%
Control effect (%) of B applied alone in corresponding dose (Sinapis arvensis; [4]): 19.8%
Control effect (%) of B applied alone in corresponding dose (Sinapis arvensis; [5]): 37.2%
Control effect (%) of B applied alone in corresponding dose (Digitaria sanguinalis; B 75 g a.i./ha, 20 days): 12.3%
Control effect (%) of B applied alone in corresponding dose (Digitaria sanguinalis; B 150 g a.i./ha, 20 days): 24.6%
Control effect (%) of B applied alone in corresponding dose (Digitaria sanguinalis; B 300 g a.i./ha, 20 days): 43.5%
Control effect (%) of B applied alone in corresponding dose (Digitaria sanguinalis; B 600 g a.i./ha, 20 days): 76.4%
Control effect (%) of B applied alone in corresponding dose (Digitaria sanguinalis; [2]): 12.3%
Control effect (%) of B applied alone in corresponding dose (Digitaria sanguinalis; [3]): 24.6%
Control effect (%) of B applied alone in corresponding dose (Digitaria sanguinalis; [4]): 43.5%
Control effect (%) of B applied alone in corresponding dose (Digitaria sanguinalis; [5]): 76.4%
Control effect (%) of B applied alone in corresponding dose (Eleusine indica; B 75 g a.i./ha, 20 days): 6.9%
Control effect (%) of B applied alone in corresponding dose (Eleusine indica; B 150 g a.i./ha, 20 days): 13.6%
Control effect (%) of B applied alone in corresponding dose (Eleusine indica; B 300 g a.i./ha, 20 days): 21.3%
Control effect (%) of B applied alone in corresponding dose (Eleusine indica; B 600 g a.i./ha, 20 days): 68.9%
Control effect (%) of B applied alone in corresponding dose (Eleusine indica; [2]): 6.9%
Control effect (%) of B applied alone in corresponding dose (Eleusine indica; [3]): 13.6%
Control effect (%) of B applied alone in corresponding dose (Eleusine indica; [4]): 21.3%
Control effect (%) of B applied alone in corresponding dose (Eleusine indica; [5]): 68.9%

O=C(Nc1ccc(F)cc1F)c1cccnc1Oc1cccc(C(F)(F)F)c1 [diflufenican]
Control effect (%) of B applied alone in corresponding dose (Solanum nigrum; B 15 g a.i./ha): 6.0%
Control effect (%) of B applied alone in corresponding dose (Solanum nigrum; B 30 g a.i./ha): 15.0%
Control effect (%) of B applied alone in corresponding dose (Solanum nigrum; B 60 g a.i./ha): 41.7%
Control effect (%) of B applied alone in corresponding dose (Solanum nigrum; B 120 g a.i./ha): 76.5%
Control effect (%) of B applied alone in corresponding dose ([1]; Table 87, 15 g a.i./ha): 2.3%
Control effect (%) of B applied alone in corresponding dose ([1]; Table 87, 30 g a.i./ha): 10.2%
Control effect (%) of B applied alone in corresponding dose ([1]; Table 87, 60 g a.i./ha): 40.3%
Control effect (%) of B applied alone in corresponding dose ([1]; Table 87, 120 g a.i./ha): 76.2%

CCOC(=O)C(Cl)Cc1cc(-n2nc(C)n(C(F)F)c2=O)c(F)cc1Cl (stereo not drawn) [carfentrazone-ethyl]
Control effect (%) of B applied alone in corresponding dose (Solanum nigrum; B 1.875 g a.i./ha): 6.3%
Control effect (%) of B applied alone in corresponding dose (Solanum nigrum; B 3.75 g a.i./ha): 12.1%
Control effect (%) of B applied alone in corresponding dose (Solanum nigrum; B 7.5 g a.i./ha): 38.0%
Control effect (%) of B applied alone in corresponding dose (Solanum nigrum; B 15 g a.i./ha): 68.7%
Control effect (%) of B applied alone in corresponding dose ([1]; Table 90, 1.875 g a.i./ha): 2.6%
Control effect (%) of B applied alone in corresponding dose ([1]; Table 90, 3.75 g a.i./ha): 11.6%
Control effect (%) of B applied alone in corresponding dose ([1]; Table 90, 7.5 g a.i./ha): 36.2%
Control effect (%) of B applied alone in corresponding dose ([1]; Table 90, 15 g a.i./ha): 68.2%
